According to PMC11876276, “LC–MS/MS quantification of bacterial and fungal signal peptides via direct injection: a case study of cross-kingdom communication” (Analytical and Bioanalytical Chemistry, 2025):

Test: Peptide stability in fresh culture media (W0, MV, EMM)
Assay type: physicochemical
Experimental: Stability of the peptides was analyzed in freshly prepared media and in the supernatant from yeast cultivations in W0 and MV media. For this purpose, the yeast cultivations were initiated in 10 mL media with an optical density (OD600nm) of 1 and were cultivated for 24 h at 30 °C with continuous shaking. Subsequently, 2 mL of the culture was sampled and centrifuged at 5000 × g for 5 min. The resulting supernatant was removed and stored at -20 °C until LC–MS analysis. To study the time-dependent peptide stability, yeast supernatant and fresh culture medium with a volume of 900 µL each were spiked with 100 µL of a synthetic peptide mixture containing 10 µM of each α-factor and CSF in HPLC-grade water with 0.125% FA. The samples were analyzed immediately after sampling and subsequently over seven 3h intervals, in order to determine the remaining peptide concentrations. […]
The stability of the peptides also depends on their rate of enzymatic conversation through the action of proteases or peptidases (see review) secreted by cells during the cultivation. Therefore, the concentration of a peptide mixture (containing both α-factor and CSF) was monitored over a period of at least 18 h in the presence of fresh culture media or the supernatant of cultured yeast cells (harvested after 24 h). […]

Peptide stability in EMM media (typical EMM media used for S. pombe, without and with 50 % ACN, LC-MS/MS, Fig. S7)	Concentration over 18 h in fresh culture media (fresh W0 pH = 5.6 or MV pH = 6.5, 1 µM peptide, glass vessels, 3 h intervals, LC-MS/MS normalized peak area, Fig. S5)	Substance
demonstrated	–	TYADFL RAYQSW NTFVNP DRPNL [P-factor, pheromone from S. pombe, obtained from Davids Biotechnologie]
–	remained nearly constant	WHWLQLKPQPMY [α-factor, signal peptide (pheromone) from S. cerevisiae, ordered from UMEX GmbH]
